# Earlier results as cited in patent US12653874B2, “Nant cancer vaccine” (NantCell, Inc., priority 2016, dated 2026).
# Legend:
# [1] = test system: pancreatic cancer
# [2] = test system: CD20-positive NHL
# [3] = test system: advanced melanoma; details: unresectable or advanced melanoma, result in words
# [4] = patients receiving treatment (Conroy 2011)
compound,measurement,setting,value
FOLFIRINOX,median OS,[1]; [4],11.1 months
same,median PFS,[1]; [4],6.4 months
same,OS and PFS versus gemcitabine monotherapy,[1]; result in words,improves OS and PFS over monotherapy with gemcitabine
rituximab: anti-CD20 antibody,response rate to single agent retreatment,"[2]; rituximab refractory (RR) patients, reasonable estimate, trial data not reported",< 5%
same,patients responding to retreatment,[2]; rituximab sensitive (RS) patients,approximately 40%
CC(C)(C)c1nc(-c2cccc(NS(=O)(=O)c3c(F)cccc3F)c2F)c(-c2ccnc(N)n2)s1 [Dabrafenib],PFS,[3],improvement in PFS when compared to dacarbazine
